Results published in article PMC10439028, “SGLT5 is the renal transporter for 1,5-anhydroglucitol, a major player in two rare forms of neutropenia” (Cellular and Molecular Life Sciences: CMLS, 2023).

Molecular target: T1, hSGLT5 Ala522Val (Homo sapiens, UniProt A0PJK1, A522V)
T1 construct: pUB83-hSGLT5-iso2 as well as the various SGLT5 mutants obtained were used to transduce HEK293T cells; expressed in transfected cells; host or cells: HEK293T, lentiviral transduction (pUB83)
T1 sequence (A0PJK1 1-596 A522V): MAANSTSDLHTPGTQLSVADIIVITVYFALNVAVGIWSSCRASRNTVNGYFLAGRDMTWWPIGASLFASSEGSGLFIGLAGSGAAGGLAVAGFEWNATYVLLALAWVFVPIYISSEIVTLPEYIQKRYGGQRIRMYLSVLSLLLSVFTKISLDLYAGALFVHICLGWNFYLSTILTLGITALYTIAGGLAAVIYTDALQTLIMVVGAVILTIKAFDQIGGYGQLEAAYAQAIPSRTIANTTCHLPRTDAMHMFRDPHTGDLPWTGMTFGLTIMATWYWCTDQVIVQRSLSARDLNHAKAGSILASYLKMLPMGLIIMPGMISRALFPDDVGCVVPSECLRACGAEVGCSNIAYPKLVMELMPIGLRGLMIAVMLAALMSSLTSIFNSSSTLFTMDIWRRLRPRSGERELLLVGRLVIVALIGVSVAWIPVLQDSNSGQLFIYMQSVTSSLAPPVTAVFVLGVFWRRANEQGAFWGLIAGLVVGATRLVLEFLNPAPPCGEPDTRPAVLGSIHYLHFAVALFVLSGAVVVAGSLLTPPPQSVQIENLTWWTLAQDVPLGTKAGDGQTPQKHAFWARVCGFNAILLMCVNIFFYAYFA
Assay: Inhibition of 10 µM 1,5-AG transport by SGLT5 variant Ala522Val
Type: cell-based
Details: Fig. 5D
Protocol: The transport experiments to study the specificity of SGLT4 or SGLT5, were performed in the presence of 10 µM U-[^14C + ^12C]-mannose (for SGLT4) or 2-[^3H + ^1H]-1,5-AG (for SGLT5) and increasing concentrations of various sugars tested. The transport experiments to study the inhibition of empagliflozin, dapagliflozin or remogliflozin, on the transport of 1,5-AG by SGLT5 or its variants were performed in the presence of 10 µM 2-[^3H + ^1H]-1,5-AG and increasing concentrations of the various gliflozins tested.
SGLT5 mutants were created using the quick-change site directed mutagenesis method that enables effective mutagenesis without subcloning of the amplified PCR products. Complementary primer pairs carrying the desired replacements (Supplementary Table 3) were designed using an online tool (https://www.agilent.com/store/primerDesignProgram.jsp). The PCR protocol was carried out following the manufacturer instructions regarding the KOD HOT Start polymerase kit (TOYOBO™, Novagen). The amplified DNA was cleaned-up from the reactions constituents using the GeneJET PCR purification Kit (Thermo Scientific™) and the size of the DNA fragment were verified by DNA agarose-gel electrophoresis. […]

effect of mutation on concentration of empagliflozin needed to inhibit SGLT5: did not affect significantly
Compound: OC[C@H]1O[C@@H](c2ccc(Cl)c(Cc3ccc(O[C@H]4CCOC4)cc3)c2)[C@H](O)[C@@H](O)[C@@H]1O [empagliflozin]
